Reference: US20250352512A2, “C4-S[…] DERIVATIVES AND METHODS OF USING” (priority 2022, published 2025)
Like-named read-outs stand apart in the source and are kept apart here.

Key:
[1] = biological target: T1, CNR1 (Homo sapiens, UniProt P21554); experiment: cell-based
[2] = biological target: T2, OPRD1 (Homo sapiens, UniProt P41143); experiment: cell-based
[3] = biological target: T2, OPRD1; experiment: cell-based; remark: listed apart in the source
[4] = biological target: T3, CHRM2 (Homo sapiens, UniProt P08172); experiment: cell-based
T3 sequence (P08172 1-466): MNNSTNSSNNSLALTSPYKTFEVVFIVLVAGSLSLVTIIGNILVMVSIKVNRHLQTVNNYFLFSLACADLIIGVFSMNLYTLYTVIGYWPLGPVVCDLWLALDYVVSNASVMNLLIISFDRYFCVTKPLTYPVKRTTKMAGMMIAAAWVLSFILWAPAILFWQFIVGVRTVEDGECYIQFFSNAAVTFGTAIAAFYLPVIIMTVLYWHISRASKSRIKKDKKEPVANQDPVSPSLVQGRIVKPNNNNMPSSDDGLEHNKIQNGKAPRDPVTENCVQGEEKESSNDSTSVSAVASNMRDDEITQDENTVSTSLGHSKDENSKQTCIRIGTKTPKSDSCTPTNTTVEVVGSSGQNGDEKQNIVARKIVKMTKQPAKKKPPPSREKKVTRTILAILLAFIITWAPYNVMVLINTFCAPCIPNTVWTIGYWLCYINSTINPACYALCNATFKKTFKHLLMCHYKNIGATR

[5] = biological target: T1, CNR1; experiment: cell-based; remark: listed apart in the source
[6] = biological target: DRD2S (Homo sapiens, UniProt P14416); experiment: cell-based
[7] = biological target: T4, ADRA1A (Homo sapiens, UniProt P35348); experiment: cell-based
T4 sequence (P35348 1-466): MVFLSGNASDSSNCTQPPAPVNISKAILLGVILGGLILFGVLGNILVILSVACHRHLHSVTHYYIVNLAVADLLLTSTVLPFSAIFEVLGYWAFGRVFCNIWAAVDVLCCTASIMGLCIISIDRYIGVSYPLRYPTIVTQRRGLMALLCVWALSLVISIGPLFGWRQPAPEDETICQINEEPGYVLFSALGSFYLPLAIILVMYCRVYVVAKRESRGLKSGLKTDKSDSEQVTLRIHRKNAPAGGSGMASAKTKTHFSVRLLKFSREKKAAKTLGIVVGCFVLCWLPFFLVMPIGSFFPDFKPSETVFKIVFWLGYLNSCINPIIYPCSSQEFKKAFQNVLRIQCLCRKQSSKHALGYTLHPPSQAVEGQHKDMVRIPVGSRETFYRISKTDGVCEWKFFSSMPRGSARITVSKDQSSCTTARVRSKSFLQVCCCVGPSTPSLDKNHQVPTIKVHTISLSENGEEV

[8] = biological target: SERT (Homo sapiens, UniProt P31645); experiment: cell-based; conditions: SERT, transporter, BL (blocker); read-out: IC50
[9] = biological target: NMDAR (Homo sapiens, UniProt Q05586+Q13224); experiment: cell-based
[10] = biological target: T5, HTR1A (5-HT1A) (Homo sapiens, UniProt P08908); experiment: cell-based
T5 sequence (P08908 1-422): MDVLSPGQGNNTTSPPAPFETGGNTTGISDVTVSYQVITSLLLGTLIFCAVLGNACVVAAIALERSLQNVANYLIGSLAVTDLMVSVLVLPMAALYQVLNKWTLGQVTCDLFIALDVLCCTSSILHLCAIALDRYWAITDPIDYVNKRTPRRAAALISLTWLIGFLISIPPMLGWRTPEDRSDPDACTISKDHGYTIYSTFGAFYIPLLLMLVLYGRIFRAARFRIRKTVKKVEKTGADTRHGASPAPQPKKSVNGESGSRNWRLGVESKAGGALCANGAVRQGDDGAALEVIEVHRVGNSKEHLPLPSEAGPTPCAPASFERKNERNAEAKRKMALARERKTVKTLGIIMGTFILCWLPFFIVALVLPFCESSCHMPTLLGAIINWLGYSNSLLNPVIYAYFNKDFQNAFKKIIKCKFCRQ

[11] = biological target: T6, CHRM1 (Homo sapiens, UniProt P11229); experiment: cell-based; conditions: CHRM1, GPCR, ANT (antagonist); read-out: IC50
T6 sequence (P11229 1-460): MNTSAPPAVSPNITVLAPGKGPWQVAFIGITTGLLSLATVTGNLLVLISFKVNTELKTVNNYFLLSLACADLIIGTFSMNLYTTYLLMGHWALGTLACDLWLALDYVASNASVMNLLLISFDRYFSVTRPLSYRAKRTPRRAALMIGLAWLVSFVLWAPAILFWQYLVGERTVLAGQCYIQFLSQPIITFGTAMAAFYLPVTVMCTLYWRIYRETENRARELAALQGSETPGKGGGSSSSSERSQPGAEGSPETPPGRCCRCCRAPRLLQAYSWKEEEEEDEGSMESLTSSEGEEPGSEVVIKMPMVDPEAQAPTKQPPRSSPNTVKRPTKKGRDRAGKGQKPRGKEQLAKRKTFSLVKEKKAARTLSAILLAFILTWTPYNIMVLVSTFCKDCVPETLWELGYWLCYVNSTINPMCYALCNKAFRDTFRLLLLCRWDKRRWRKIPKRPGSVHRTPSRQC

[12] = biological target: T7, 5-HT1A receptor (Homo sapiens, UniProt P08908); format: cell-based; conditions: comparison of +5-HT1A with -5-HT1A cultures, 4 mM forskolin
T7 construct: host or cells: CHO-K1
T7 sequence (P08908 1-422): T5 sequence (P08908 1-422)

[13] = biological target: HTR1B (5-HTR1B) (Homo sapiens, UniProt P28222); experiment: cell-based
[14] = biological target: T5, HTR1A (5-HT1A); experiment: cell-based; remark: listed apart in the source
[15] = biological target: T6, CHRM1; experiment: cell-based
[16] = biological target: DRD1 (Homo sapiens, UniProt P21728); experiment: cell-based
[17] = biological target: HTR2B (5-HT2B) (Homo sapiens, UniProt P41595); experiment: cell-based
[18] = biological target: T4, ADRA1A; experiment: cell-based; remark: listed apart in the source
[19] = CNR1, GPCR, ANT (antagonist), read-out: IC50
[20] = OPRD1, GPCR, ANT (antagonist), read-out: IC50
[21] = OPRD1, GPCR, AGN (agonist), read-out: EC50
[22] = CHRM2, GPCR, ANT (antagonist), read-out: IC50
[23] = CNR1, GPCR, AGN (agonist), read-out: EC50
[24] = DRD2S, GPCR, AGN (agonist), read-out: EC50
[25] = ADRA1A, GPCR, ANT (antagonist), read-out: IC50
[26] = NMDAR, ion channel, OP (opener), read-out: EC50
[27] = HTR1A, GPCR, AGN (agonist), read-out: EC50
[28] = HTR1B, GPCR, AGN (agonist), read-out: EC50
[29] = HTR1A, GPCR, ANT (antagonist), read-out: IC50
[30] = CHRM1, GPCR, AGN (agonist), read-out: EC50
[31] = DRD1, GPCR, ANT (antagonist), read-out: IC50
[32] = HTR2B, GPCR, AGN (agonist), read-out: EC50
[33] = ADRA1A, GPCR, AGN (agonist), read-out: EC50

T1 sequence (P21554 whole entry): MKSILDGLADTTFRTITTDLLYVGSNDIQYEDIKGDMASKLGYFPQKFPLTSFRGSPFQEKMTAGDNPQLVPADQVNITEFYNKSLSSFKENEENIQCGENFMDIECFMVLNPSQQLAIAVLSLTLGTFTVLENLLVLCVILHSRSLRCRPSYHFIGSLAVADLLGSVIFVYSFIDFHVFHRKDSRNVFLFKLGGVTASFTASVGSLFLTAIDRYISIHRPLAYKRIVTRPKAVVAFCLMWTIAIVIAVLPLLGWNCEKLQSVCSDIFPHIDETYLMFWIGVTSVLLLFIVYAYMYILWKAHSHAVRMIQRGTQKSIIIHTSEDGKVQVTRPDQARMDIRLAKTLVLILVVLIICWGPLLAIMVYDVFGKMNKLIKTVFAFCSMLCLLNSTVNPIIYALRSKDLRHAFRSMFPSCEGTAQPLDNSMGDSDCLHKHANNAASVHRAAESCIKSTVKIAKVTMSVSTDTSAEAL
Chain of NMDAR (Q13224 27-1484, other chains not shown): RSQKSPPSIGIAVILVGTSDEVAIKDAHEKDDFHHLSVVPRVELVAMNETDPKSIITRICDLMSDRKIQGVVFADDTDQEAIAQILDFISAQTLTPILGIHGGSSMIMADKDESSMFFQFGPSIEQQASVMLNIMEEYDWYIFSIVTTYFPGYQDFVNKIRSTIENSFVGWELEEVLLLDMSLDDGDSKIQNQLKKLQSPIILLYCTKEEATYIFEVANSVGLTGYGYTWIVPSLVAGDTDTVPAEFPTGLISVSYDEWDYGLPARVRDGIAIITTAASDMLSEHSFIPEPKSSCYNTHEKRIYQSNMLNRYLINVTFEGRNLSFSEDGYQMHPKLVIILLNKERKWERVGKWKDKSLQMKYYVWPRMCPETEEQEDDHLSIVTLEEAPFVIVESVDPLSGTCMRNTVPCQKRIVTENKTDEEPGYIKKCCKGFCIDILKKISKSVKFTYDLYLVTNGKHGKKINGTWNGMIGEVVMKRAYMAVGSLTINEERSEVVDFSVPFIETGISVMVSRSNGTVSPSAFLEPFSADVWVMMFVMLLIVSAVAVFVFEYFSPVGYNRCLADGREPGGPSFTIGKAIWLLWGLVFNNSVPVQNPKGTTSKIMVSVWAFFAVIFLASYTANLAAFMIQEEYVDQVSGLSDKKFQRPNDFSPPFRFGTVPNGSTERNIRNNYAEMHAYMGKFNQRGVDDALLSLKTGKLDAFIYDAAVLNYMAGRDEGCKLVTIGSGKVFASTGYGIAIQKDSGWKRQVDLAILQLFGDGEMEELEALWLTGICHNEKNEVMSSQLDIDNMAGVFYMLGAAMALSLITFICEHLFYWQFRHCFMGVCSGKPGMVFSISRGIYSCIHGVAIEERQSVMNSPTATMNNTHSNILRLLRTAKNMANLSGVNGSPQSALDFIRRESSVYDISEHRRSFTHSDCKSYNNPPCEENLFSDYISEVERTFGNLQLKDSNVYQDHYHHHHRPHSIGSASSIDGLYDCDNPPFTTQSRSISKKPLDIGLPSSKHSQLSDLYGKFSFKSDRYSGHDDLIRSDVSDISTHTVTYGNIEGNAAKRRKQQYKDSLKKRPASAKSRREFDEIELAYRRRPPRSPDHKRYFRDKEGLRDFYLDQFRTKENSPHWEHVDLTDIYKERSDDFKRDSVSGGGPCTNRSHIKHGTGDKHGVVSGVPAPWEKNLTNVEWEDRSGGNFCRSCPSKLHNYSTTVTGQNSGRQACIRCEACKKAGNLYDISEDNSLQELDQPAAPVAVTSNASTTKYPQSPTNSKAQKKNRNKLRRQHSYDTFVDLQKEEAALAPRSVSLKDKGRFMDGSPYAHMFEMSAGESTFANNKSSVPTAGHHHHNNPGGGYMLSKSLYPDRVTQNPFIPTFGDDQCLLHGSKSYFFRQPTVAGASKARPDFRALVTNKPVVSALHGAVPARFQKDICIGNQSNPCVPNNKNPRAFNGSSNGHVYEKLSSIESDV
Chain of HTR2B (5-HT2B) (P41595 whole entry): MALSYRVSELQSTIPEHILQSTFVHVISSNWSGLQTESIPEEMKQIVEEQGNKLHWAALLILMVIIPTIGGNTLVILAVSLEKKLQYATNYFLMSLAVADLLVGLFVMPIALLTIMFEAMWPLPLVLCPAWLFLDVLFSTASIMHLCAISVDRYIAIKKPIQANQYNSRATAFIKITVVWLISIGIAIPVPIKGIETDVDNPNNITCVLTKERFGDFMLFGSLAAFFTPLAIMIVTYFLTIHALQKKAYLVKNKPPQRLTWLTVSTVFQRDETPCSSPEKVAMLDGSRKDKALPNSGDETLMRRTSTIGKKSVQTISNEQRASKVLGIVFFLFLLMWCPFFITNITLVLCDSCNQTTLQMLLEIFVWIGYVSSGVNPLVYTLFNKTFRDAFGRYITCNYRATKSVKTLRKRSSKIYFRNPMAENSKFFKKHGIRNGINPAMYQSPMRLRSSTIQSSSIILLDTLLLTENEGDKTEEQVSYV
Chain of HTR1B (5-HTR1B) (P28222 whole entry): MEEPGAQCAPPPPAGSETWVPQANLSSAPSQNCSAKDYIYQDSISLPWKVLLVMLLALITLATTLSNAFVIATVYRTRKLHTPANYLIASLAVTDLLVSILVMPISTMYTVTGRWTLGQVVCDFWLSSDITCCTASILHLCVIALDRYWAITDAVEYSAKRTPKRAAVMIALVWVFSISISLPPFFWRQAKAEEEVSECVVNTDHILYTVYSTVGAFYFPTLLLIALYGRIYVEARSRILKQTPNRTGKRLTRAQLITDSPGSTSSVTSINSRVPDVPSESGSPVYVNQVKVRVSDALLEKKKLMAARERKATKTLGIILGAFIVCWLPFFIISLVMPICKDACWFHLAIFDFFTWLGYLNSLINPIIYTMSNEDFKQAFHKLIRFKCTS
Chain of SERT (P31645 whole entry): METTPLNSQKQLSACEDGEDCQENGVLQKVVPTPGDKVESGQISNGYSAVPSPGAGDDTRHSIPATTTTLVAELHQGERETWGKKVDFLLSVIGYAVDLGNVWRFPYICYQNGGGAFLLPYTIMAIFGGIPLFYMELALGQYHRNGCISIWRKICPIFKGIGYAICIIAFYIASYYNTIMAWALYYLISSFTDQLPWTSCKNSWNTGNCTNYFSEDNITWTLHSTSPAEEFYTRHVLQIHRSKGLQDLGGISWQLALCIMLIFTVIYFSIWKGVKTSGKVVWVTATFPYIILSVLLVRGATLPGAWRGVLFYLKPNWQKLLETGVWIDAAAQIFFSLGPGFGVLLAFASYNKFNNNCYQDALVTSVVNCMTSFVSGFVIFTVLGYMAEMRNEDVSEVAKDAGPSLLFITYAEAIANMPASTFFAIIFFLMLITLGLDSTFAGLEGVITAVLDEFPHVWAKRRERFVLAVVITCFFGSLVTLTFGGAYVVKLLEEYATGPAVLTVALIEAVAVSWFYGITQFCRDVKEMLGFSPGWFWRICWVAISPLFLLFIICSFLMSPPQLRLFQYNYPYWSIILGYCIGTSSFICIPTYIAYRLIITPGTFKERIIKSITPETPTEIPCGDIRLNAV
T2 sequence (P41143 whole entry): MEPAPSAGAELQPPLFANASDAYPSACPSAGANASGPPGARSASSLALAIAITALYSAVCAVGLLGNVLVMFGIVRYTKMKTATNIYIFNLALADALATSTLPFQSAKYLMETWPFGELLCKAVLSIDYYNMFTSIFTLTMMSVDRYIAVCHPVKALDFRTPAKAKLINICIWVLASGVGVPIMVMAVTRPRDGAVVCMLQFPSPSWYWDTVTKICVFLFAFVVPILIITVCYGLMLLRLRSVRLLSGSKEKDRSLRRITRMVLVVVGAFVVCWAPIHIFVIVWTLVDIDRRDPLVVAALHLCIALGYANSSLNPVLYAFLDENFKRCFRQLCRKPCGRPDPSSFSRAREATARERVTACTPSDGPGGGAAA
Chain of DRD1 (P21728 whole entry): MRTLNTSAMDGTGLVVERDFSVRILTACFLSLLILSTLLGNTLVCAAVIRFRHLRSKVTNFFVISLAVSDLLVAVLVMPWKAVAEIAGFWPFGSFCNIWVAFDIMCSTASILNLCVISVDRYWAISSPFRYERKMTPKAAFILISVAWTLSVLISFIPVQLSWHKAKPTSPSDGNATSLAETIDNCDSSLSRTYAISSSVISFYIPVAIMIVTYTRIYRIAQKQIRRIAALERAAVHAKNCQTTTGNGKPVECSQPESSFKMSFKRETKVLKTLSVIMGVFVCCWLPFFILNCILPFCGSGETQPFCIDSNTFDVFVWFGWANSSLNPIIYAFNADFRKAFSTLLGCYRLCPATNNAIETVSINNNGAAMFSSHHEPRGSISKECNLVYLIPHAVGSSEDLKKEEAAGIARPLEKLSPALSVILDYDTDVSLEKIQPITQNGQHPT
Chain of DRD2S (P14416 1-414 isoform P14416-2): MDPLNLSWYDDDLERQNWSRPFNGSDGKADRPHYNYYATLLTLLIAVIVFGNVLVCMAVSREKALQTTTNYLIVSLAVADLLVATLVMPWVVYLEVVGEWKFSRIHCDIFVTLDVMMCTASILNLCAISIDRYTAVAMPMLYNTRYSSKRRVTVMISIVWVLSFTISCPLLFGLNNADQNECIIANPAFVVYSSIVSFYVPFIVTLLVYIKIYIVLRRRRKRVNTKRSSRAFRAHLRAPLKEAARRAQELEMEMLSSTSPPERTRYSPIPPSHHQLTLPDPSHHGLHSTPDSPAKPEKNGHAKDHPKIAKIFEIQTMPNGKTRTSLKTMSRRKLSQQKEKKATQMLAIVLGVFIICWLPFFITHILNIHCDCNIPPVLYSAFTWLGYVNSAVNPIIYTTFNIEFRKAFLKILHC

SMILES: CCCCC(=O)OCOc1cccc2[nH]cc(CCN(C)C)c12 [D(III)]
- IC50 [1, 19]: > 100 µM
- IC50 [2, 20]: > 100 µM
- EC50 [3, 21]: > 100 µM
- IC50 [4, 22]: > 100 µM
- EC50 [5, 23]: > 100 µM
- EC50 [6, 24]: 17.8 µM
- IC50 [7, 25]: 3.86 µM
- IC50 [8]: > 100 µM
- EC50 [9, 26]: > 100 µM
- EC50 [10, 27]: 28.7 µM
- IC50 [11]: 52.6 µM
- 5-HT1A receptor modulation [12]: suggests no receptor modulation
- EC50 [13, 28]: 279 nM
- IC50 [14, 29]: > 100 µM
- EC50 [15, 30]: > 100 µM
- IC50 [16, 31]: 32.2 µM
- EC50 [17, 32]: > 100 µM
- EC50 [18, 33]: > 100 µM

SMILES: CCCC(=O)OCOc1cccc2[nH]cc(CCN(C)C)c12 [D(IV)]
- IC50 [1, 19]: > 100 µM
- IC50 [2, 20]: > 100 µM
- EC50 [3, 21]: 53.2 µM
- IC50 [4, 22]: > 100 µM
- EC50 [5, 23]: > 100 µM
- EC50 [6, 24]: 27.4 µM
- IC50 [7, 25]: 12.9 µM
- IC50 [8]: > 100 µM
- EC50 [9, 26]: > 100 µM
- EC50 [10, 27]: 18 µM
- IC50 [11]: > 100 µM
- EC50 [13, 28]: 638 nM
- IC50 [14, 29]: > 100 µM
- EC50 [15, 30]: > 100 µM
- IC50 [16, 31]: 49.5 µM
- EC50 [17, 32]: > 100 µM
- EC50 [18, 33]: > 100 µM

SMILES: CC(C)OC(=O)OCOc1cccc2c1c(CCN(C)C)cn2COC(=O)OC(C)C [D(XIII)]
- IC50 [1]: > 100 µM
- IC50 [2, 20]: > 100 µM
- EC50 [3]: > 100 µM
- IC50 [4, 22]: 66.5 µM
- EC50 [5, 23]: > 100 µM
- EC50 [6, 24]: 77 µM
- IC50 [7, 25]: > 100 µM
- IC50 [8]: > 100 µM
- EC50 [9, 26]: > 100 µM
- EC50 [10, 27]: > 100 µM
- IC50 [11]: > 100 µM
- 5-HT1A receptor modulation [12]: suggests receptor modulation at higher ligand concentrations
- EC50 [13, 28]: 9320 nM
- IC50 [14, 29]: > 100 µM
- EC50 [15, 30]: > 100 µM
- IC50 [16, 31]: > 100 µM
- EC50 [17, 32]: > 100 µM
- EC50 [18, 33]: > 100 µM

SMILES: CN(C)CCc1c[nH]c2cccc(OP(=O)(Oc3ccccc3)Oc3ccccc3)c12 [F(I)]
- IC50 [1]: 17.2 µM
- IC50 [2]: 57.1 µM
- EC50 [3]: > 100 µM
- IC50 [4]: 42.9 µM
- EC50 [5]: > 100 µM
- EC50 [6]: 3.06 µM
- IC50 [7]: 14.8 µM
- IC50 [8]: 39.2 µM
- EC50 [9]: > 100 µM
- EC50 [10]: 6.36 µM
- IC50 [11]: 39.9 µM
- 5-HT1A receptor modulation [12]: reveals receptor modulation
- EC50 [13]: 54.9 nM
- IC50 [14]: > 100 µM
- EC50 [15]: > 100 µM
- IC50 [16]: 6.98 µM
- EC50 [17]: > 100 µM
- EC50 [18]: > 100 µM
